This is an account of results in ChEMBL document CHEMBL1124039, “Angiotensin-converting enzyme inhibitors. 2. Perhydroazepin-2-one derivatives” (J Med Chem, 1988).

For this test, the target named is T1, Angiotensin-converting enzyme (Oryctolagus cuniculus, UniProt P12822).
T1 sequence (P12822 whole entry): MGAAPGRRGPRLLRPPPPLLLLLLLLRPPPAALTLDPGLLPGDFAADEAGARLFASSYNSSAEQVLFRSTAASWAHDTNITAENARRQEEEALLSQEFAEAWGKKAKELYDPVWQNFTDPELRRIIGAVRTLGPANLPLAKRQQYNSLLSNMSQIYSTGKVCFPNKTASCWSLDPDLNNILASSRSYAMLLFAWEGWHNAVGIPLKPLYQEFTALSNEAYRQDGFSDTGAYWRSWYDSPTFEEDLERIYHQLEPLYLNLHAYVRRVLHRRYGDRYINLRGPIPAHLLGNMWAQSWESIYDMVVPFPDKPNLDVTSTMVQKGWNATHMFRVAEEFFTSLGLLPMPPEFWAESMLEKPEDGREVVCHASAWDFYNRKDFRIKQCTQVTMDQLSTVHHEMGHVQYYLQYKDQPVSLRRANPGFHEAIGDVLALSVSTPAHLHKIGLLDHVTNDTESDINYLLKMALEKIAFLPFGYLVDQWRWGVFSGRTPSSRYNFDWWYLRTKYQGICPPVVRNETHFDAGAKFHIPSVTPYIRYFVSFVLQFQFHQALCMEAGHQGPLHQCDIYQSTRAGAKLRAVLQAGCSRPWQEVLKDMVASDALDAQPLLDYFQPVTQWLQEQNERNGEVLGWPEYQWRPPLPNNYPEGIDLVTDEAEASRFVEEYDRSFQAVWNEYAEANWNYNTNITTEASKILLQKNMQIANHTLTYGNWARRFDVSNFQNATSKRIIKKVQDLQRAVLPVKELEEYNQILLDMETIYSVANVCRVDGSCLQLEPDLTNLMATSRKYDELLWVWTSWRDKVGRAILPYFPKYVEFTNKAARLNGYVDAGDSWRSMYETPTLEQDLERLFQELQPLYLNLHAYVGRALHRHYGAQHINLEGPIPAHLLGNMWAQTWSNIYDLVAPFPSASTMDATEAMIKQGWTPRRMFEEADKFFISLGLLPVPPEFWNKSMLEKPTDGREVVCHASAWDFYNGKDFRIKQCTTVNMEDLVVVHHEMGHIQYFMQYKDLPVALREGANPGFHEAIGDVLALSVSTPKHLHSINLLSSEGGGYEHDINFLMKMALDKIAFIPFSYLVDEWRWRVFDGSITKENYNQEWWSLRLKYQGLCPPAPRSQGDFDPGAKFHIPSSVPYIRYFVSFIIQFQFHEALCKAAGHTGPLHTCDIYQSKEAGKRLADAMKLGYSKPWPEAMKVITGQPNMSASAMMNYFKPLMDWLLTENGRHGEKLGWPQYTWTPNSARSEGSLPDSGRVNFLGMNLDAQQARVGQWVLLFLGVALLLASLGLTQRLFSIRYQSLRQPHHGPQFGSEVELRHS
Kind of test: Concentration required for 50% inhibition of rabbit lung Angiotensin I converting enzyme with 5 mM hippuryl-histidyl-leucine as substrate.
The term IC50 denotes the point on the concentration scale where inhibition reaches its midpoint. Consider `O=C(O)CN1C(=O)[C@@H](N[C@@H](CCc2ccccc2)C(=O)O)CCC[C@@H]1c1ccccc1`, for which the half-maximal inhibitory concentration (IC50) worked out at 16.2 nM. That is a double-digit nanomolar value. In the case of `O=C(O)CN1C[C@H](c2ccccc2)CC[C@H](N[C@@H](CCc2ccccc2)C(=O)O)C1=O` it was 4.3 nM; in that of `O=C(O)CN1C(=O)[C@@H](N[C@@H](CCc2ccccc2)C(=O)O)CCC[C@H]1c1ccccc1`, 3.6 nM. Turning to `O=C(O)CN1C[C@@H](c2ccccc2)CC[C@H](N[C@@H](CCc2ccccc2)C(=O)O)C1=O`, the IC50 is 3.1 nM. The IC50 values of the last two molecules are within 1.5-fold of each other.
